# Laboratory results from patent US20240252488A1 (KOREA RESEARCH INSTITUTE OF CHEMICAL TECHNOLOGY, priority 2020, published 2024).
# Columns and labels:
# FADD−/− Jurkat cells = test: Necroptosis inhibition assay, TNF-α-induced necroptosis (CellTiter-Glo 2.0); assay type: cell-based, human; conditions: TNF-α 15 ng/mL; for Necroptosis inhibition assay (Rescue %) 1 μM: compound 1 μM; for Necroptosis inhibition assay (Rescue %) 10 μM: compound 10 μM
# Outline: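 Tested at three fixed concentrations (0.1, 1, 10 μM final) with a 30-minute room-temperature preincubation ahead of 15 ng/mL TNF-α challenge lasting 20 to 24 hours. Inhibition rate and cytotoxicity derive from ATP luminescence.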
# MLKL [1] = biological target: T1, MLKL (Homo sapiens, UniProt Q8NB16); test: MLKL degradation assay in HepG2 cell line (western blot); assay type: cell-based; design: endogenous in cells; host or cells: HepG2 or HaCaT; conditions: cell line not given; for Degradation assay (Degradation %) 1 μM: compound 1 μM; for Degradation assay (Degradation %) 10 μM: compound 10 μM
# T1 sequence (Q8NB16 1-471): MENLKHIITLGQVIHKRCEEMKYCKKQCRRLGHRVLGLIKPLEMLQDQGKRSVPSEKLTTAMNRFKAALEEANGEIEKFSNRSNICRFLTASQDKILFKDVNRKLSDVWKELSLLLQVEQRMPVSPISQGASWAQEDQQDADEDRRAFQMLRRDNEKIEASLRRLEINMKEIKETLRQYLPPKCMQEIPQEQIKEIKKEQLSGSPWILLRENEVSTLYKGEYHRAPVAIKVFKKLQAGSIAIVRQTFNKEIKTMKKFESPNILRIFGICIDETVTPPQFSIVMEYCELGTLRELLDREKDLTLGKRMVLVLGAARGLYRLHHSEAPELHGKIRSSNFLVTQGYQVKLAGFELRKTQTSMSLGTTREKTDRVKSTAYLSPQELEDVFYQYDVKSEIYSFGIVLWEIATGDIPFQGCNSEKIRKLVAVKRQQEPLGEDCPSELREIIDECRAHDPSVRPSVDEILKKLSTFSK
# Outline: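 Degradation is judged from MLKL band intensity on immunoblots of HepG2 lysates taken after 20-24 hours of compound at final 1 or 10 μM.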
# MLKL [2] = biological target: T1, MLKL; test: Measurement of binding affinity with MLKL receptor (competitive binding assay, Kd); design: made in house; host or cells: HEK 293 cell line (T7 phage in E. coli BL21-derived host is also described)
# Outline: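 Kd from an immobilized-ligand competition format: the DNA-tagged kinase from HEK 293 expression is eluted and quantified by qPCR. Compounds added from 111× DMSO stocks, final DMSO 0.9%.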
Compound,Degradation assay (Degradation %) 1 μM (MLKL [1]) [%],Degradation assay (Degradation %) 10 μM (MLKL [1]) [%],Kd (MLKL [2]) [nM],Necroptosis inhibition assay (Rescue %) 1 μM (FADD−/− Jurkat cells; FADD−/− Jurkat cells) [%],Necroptosis inhibition assay (Rescue %) 10 μM (FADD−/− Jurkat cells; FADD−/− Jurkat cells) [%],Necroptosis inhibition assay (Rescue %) 1 μM (FADD−/− Jurkat cells) [%],Necroptosis inhibition assay (Rescue %) 10 μM (FADD−/− Jurkat cells) [%]
"Nc1ncc(-c2cnn(C3CCN(CC4CCN(C(=O)C5CCN(C6=CC(=O)N(C7CCC(=O)NC7=O)C6=O)CC5)CC4)CC3)c2)nc1C(=O)O[C@@H](C(=O)Nc1ccc(F)cc1)c1ccccc1 (stereo partly drawn) [TDH-523, (R)-2-((4-fluorophenyl)amino)-2-oxo-1-phenylethyl 3-amino-6-(1-(1-((1-(1-(1-(2,6-dioxopiperidin-3-yl)-2,5-dioxo-2,5-dihydro-1H-pyrrol-3-yl)piperidine-4-carbonyl)piperidin-4-yl)methyl)piperidin-4-yl)-1H-pyrazol-4-yl)pyrazine-2-carboxylate]",89.24,77.14,1,35.34,16.27,–,–
"Nc1ncc(-c2cnn(C3CCN(C4CC5(CCN(CC6CCN(C(=O)Cc7cccc(NC8=CC(=O)N(C9CCC(=O)NC9=O)C8=O)c7)CC6)CC5)C4)CC3)c2)nc1C(=O)O[C@@H](C(=O)Nc1ccc(F)cc1)c1ccccc1 (stereo partly drawn) [TDH-500, (R)-2-((4-fluorophenyl)amino)-2-oxo-1-phenylethyl 3-amino-6-(1-(1-(7-((1-(2-(3-((1-(2,6-dioxopiperidin-3-yl)-2,5-dioxo-2,5-dihydro-1H-pyrrol-3-yl)amino)phenyl)acetyl)piperidin-4-yl)methyl)-7-azaspiro[3.5]nonan-2-yl)piperidin-4-yl)-1H-pyrazol-4-yl)pyrazine-2-carboxylate]",80.41,83.21,0.64,25.16,0.16,–,–
"Nc1ncc(-c2cnn(C3CCN(C(=O)CCC4CCN(C(=O)C5CN(c6ccc7nnn(C8CCC(=O)NC8=O)c(=O)c7c6)C5)CC4)CC3)c2)nc1C(=O)O[C@@H](C(=O)Nc1ccc(F)cc1)c1ccccc1 (stereo partly drawn) [TDH-438, (R)-2-((4-fluorophenyl)amino)-2-oxo-1-phenylethyl 3-amino-6-(1-(1-(3-(1-(1-(3-(2,6-dioxopiperidin-3-yl)-4-oxo-3,4-dihydrobenzo[d][1,2,3]triazin-6-yl)azetidine-3-carbonyl)piperidin-4-yl)propanoyl)piperidin-4-yl)-1H-pyrazol-4-yl)pyrazine-2-carboxylate]",86.72,78.91,4.5,26.37,13.48,–,–
"Nc1ncc(-c2cnn(C3CCN(C(=O)CC4CCN(C(=O)CCc5cccc6c5CN(C5CCC(=O)NC5=O)C6=O)CC4)CC3)c2)nc1C(=O)O[C@@H](C(=O)Nc1ccc(F)cc1)c1ccccc1 (stereo partly drawn) [TDH-404, (R)-2-((4-fluorophenyl)amino)-2-oxo-1-phenylethyl 3-amino-6-(1-(1-(2-(1-(3-(2-(2,6-dioxopiperidin-3-yl)-1-oxoisoindolin-4-yl)propanoyl)piperidin-4-yl)acetyl)piperidin-4-yl)-1H-pyrazol-4-yl)pyrazine-2-carboxylate]",45.30,79.08,1.1,26.83,49.11,–,–
"Nc1ncc(-c2cnn(C3CCN(C4CC5(CCN(CC6CCN(c7ccc8c(c7)C(=O)N(C7CCC(=O)NC7=O)C8=O)CC6)CC5)C4)CC3)c2)nc1C(=O)O[C@@H](C(=O)Nc1ccc(F)cc1)c1ccccc1 (stereo partly drawn) [TDH-472, (R)-2-((4-fluorophenyl)amino)-2-oxo-1-phenylethyl 3-amino-6-(1-(1-(7-((1-(2-(2,6-dioxopiperidin-3-yl)-1,3-dioxoisoindolin-5-yl)piperidin-4-yl)methyl)-7-azaspiro[3.5]nonan-2-yl)piperidin-4-yl)-1H-pyrazol-4-yl)pyrazine-2-carboxylate]",50.63,69.94,1.6,27.45,1.07,–,–

# Further lines, with some results ahead:
Degradation assay (Degradation %) 1 μM (MLKL [1]) [%],Degradation assay (Degradation %) 10 μM (MLKL [1]) [%],Kd (MLKL [2]) [nM],Compound,Necroptosis inhibition assay (Rescue %) 1 μM (FADD−/− Jurkat cells; FADD−/− Jurkat cells) [%],Necroptosis inhibition assay (Rescue %) 10 μM (FADD−/− Jurkat cells; FADD−/− Jurkat cells) [%],Necroptosis inhibition assay (Rescue %) 1 μM (FADD−/− Jurkat cells) [%],Necroptosis inhibition assay (Rescue %) 10 μM (FADD−/− Jurkat cells) [%]
1.47,4.22,85,"Nc1ncc(-c2cnn(C3CCN(CC4CCN(CC(=O)N5CC(Nc6cccc7c6C(=O)N(C6CCC(=O)NC6=O)C7=O)C5)CC4)CC3)c2)nc1C(=O)OC(C(=O)Nc1ccc(F)cc1)c1ccccc1 (stereo not shown) [TDH-271, 2-((4-fluorophenyl)amino)-2-oxo-1-phenylethyl 3-amino-6-(1-(1-((1-(2-(3-((2-(2,6-dioxopiperidin-3-yl)-1,3-dioxoisoindolin-4-yl)amino)azetidin-1-yl)-2-oxoethyl)piperidin-4-yl)methyl)piperidin-4-yl)-1H-pyrazol-4-yl)pyrazine-2-carboxylate]",–,–,45.32,76.94
57.38,24.79,1.6,"Nc1ncc(-c2cnn(C3CCN(CC4CN(C(=O)CNc5ccc6c(c5)C(=O)N(C5CCC(=O)NC5=O)C6=O)CCO4)CC3)c2)nc1C(=O)OC(C(=O)Nc1ccc(F)cc1)c1ccccc1 (stereo not shown) [TDH-307, 2-((4-fluorophenyl)amino)-2-oxo-1-phenylethyl 3-amino-6-(1-(1-((4-((2-(2,6-dioxopiperidin-3-yl)-1,3-dioxoisoindolin-5-yl)glycyl)morpholin-2-yl)methyl)piperidin-4-yl)-1H-pyrazol-4-yl)pyrazine-2-carboxylate]",–,–,83.43,73.58
92.44,94.32,19,"Nc1ncc(-c2cnn(C3CCN(CCC4CCN(c5cc6c(cc5F)C(=O)N(C5CCC(=O)NC5=O)C6=O)CC4)CC3)c2)nc1C(=O)O[C@@H](C(=O)Nc1ccc(F)cc1)c1ccccc1 (stereo partly drawn) [TDH-520, (R)-2-((4-fluorophenyl)amino)-2-oxo-1-phenylethyl 3-amino-6-(1-(1-(2-(1-(2-(2,6-dioxopiperidin-3-yl)-6-fluoro-1,3-dioxoisoindolin-5-yl)piperidin-4-yl)ethyl)piperidin-4-yl)-1H-pyrazol-4-yl)pyrazine-2-carboxylate]",63.56,36.11,–,–
88.62,80.01,2,"Nc1ncc(-c2cnn(C3CCN(CCOC4CCN(C(=O)CCc5cccc6c5C(=O)N(C5CCC(=O)NC5=O)C6=O)CC4)CC3)c2)nc1C(=O)O[C@@H](C(=O)Nc1ccc(F)cc1)c1ccccc1 (stereo partly drawn) [TDH-378, (R)-2-((4-fluorophenyl)amino)-2-oxo-1-phenylethyl 3-amino-6-(1-(1-(2-((1-(3-(2-(2,6-dioxopiperidin-3-yl)-1,3-dioxoisoindolin-4-yl)propanoyl)piperidin-4-yl)oxy)ethyl)piperidin-4-yl)-1H-pyrazol-4-yl)pyrazine-2-carboxylate]",–,–,49.61,28.89
40.32,50.03,1.2,"Nc1ncc(-c2cnn(C3CCN(CCCCCCNC(=O)CNc4ccc5c(c4)C(=O)N(C4CCC(=O)NC4=O)C5=O)CC3)c2)nc1C(=O)O[C@@H](C(=O)Nc1ccc(F)cc1)c1ccccc1 (stereo partly drawn) [TDH-132, (R)-2-((4-fluorophenyl)amino)-2-oxo-1-phenylethyl 3-amino-6-(1-(1-(6-(2-((2-(2,6-dioxopiperidin-3-yl)-1,3-dioxoisoindolin-5-yl)amino)acetamido)hexyl)piperidin-4-yl)-1H-pyrazol-4-yl)pyrazine-2-carboxylate]",–,–,75.06,54.76
72.12,84.5,73,"Nc1ncc(-c2cnn(C3CCN(CCCCCCCCCCNC(=O)C4CN(c5ccc6nnn(C7CCC(=O)NC7=O)c(=O)c6c5)C4)CC3)c2)nc1C(=O)O[C@@H](C(=O)Nc1ccc(F)cc1)c1ccccc1 (stereo partly drawn) [TDH-178, (R)-2-((4-fluorophenyl)amino)-2-oxo-1-phenylethyl 3-amino-6-(1-(1-(10-(1-(3-(2,6-dioxopiperidin-3-yl)-4-oxo-3,4-dihydrobenzo[d][1,2,3]triazin-6-yl)azetidine-3-carboxamido)decyl)piperidin-4-yl)-1H-pyrazol-4-yl)pyrazine-2-carboxylate]",–,–,24.45,28.25
